According to US20100273189A1, “NON SEPARATION ASSAYS WITH SELECTIVE SIGNAL INHIBITORS” (BECKMAN COULTER, INC., priority 2009, published 2010):

Experiments:
Type in all cases: biochemical
myoglobin = assay: Myoglobin assay, AK-Ab1 particle + HRP-Ab2 conjugate; settings: ascorbic acid employed
Protocol: This example describes a method of detecting myoglobin using a AK-Abl particle prepared as set forth in Example 3 and a HRP-Ab2 conjugate prepared as set forth in Example 4 where Ab2 represents an antibody to myoglobin. This method employed ascorbic acid to decrease background signal.
HRP-Ab2 conjugate suspensions were prepared at 1.0 μg/mL and contained either 0 or 1 mM ascorbic acid. Samples consisted of human serum samples with the indicated mounts of myoglobin added or no myoglobin as a control. The test procedure consisted of adding 20 μL of 1.0 μg/mL HRP-Ab2 conjugate and 30 μl of MES buffer containing 1 mg/mL BSA and 1 mg/mL MIgG, pH 5.9 to the reaction vessel. Next, 25 μL of patient serum sample was added, followed by 25 μL of 5.0 mg/mL AK-Abl conjugate suspension thereby obtaining 100 μL of total volume in the reaction vessel. After 15.2 minutes, […] of trigger solution A was added to the reaction vessel and the light intensity was recorded on the modified DxI instrument. Chemiluminescence intensity is expressed in Relative Light Units (RLU).

PSA = assay: Effect of trigger pH: PSA on LodeStar particles with ascorbate
Protocol: B. In order to determine the effect of trigger solution pH on a variety of test assay systems, a series of experiments were conducted varying trigger pH. […] In the tables, two pH values are listed for each data set. The first is the pH of the buffer sample added to the reaction mixture. The second is the resulting pH of the final reaction mix.

biotin-HRP = assay: Effect of ascorbic acid incubation time on chemiluminescence, Dynal M-280 biotin-HRP system; settings: incubation time 80-330 seconds; ascorbic acid 0-200 μM; in words
Protocol: The effect of the length of time that a sample is exposed to ascorbic acid on the observed reduction of chemiluminescence intensity was investigated in a series of experiments employing the Dynal M-280 PMP particles and biotin-HRP system described in Example 11. Briefly, biotin-labeled PMPs, and various biotin-HRP/HRP solutions were allowed to bind and ascorbic acid solutions added. After a delay period ranging from 80-330 seconds, trigger solution A was injected and the chemiluminescence intensity integrated. The biotin-HRP/HRP solutions contained a total of 200 ng/mL HRP in the proportion 1:200, 8:192, and 32:168 biotin-HRP:HRP. Trials were run using various concentrations of ascorbic acid as the Sample in water at 0, 25, 50 100 and 200 μM.

cTnI [1] = assay: Comparison of particle types in cTnI assay, with and without ascorbic acid; settings: 150 μM ascorbic acid; each particle system; highest calibrator level; in words
Protocol: Signal generation with Silica and PMMA particles. A comparison of Dynal M-280, 3 um CML, 6 um CML, PMMA, silica and LodeStars particles was conducted using the cTnI assay described above. The preparation of each particle, bearing a coating of streptavidin, is described in the foregoing examples. Ascorbic acid, when present, was at 150 μM.

cTnI [2] = assay: Effect of ascorbic acid concentration on cTnI assay using various particles; settings: ascorbic acid 150 μM to 9.4 μM; Dynal M-280, 6 μm CML, LodeStars; in words
Protocol: Effect of ascorbic acid on cTnI assay using various particles. The effect of varying the ascorbic acid concentration in the range 150 μM to 9.4 μM on chemiluminescence was investigated for assays employing Dynal M-280, 6 μm CML, and LodeStars particles.

[3] = Control (7.7), S1, PSA 400 pg/ml
[4] = Control (7.7), S2, PSA 1400 pg/ml
[5] = Control (7.7), S3, PSA 7000 pg/ml
[6] = Control (7.7), S4, PSA 51000 pg/ml
[7] = Control (7.7), S5, PSA 101600 pg/ml
[8] = pH 6.0 (6.2), S1, PSA 400 pg/ml
[9] = pH 6.0 (6.2), S2, PSA 1400 pg/ml
[10] = pH 6.0 (6.2), S3, PSA 7000 pg/ml
[11] = pH 6.0 (6.2), S4, PSA 51000 pg/ml
[12] = pH 6.0 (6.2), S5, PSA 101600 pg/ml
[13] = pH 7.0 (7.4), S1, PSA 400 pg/ml
[14] = pH 7.0 (7.4), S2, PSA 1400 pg/ml
[15] = pH 7.0 (7.4), S3, PSA 7000 pg/ml
[16] = pH 7.0 (7.4), S4, PSA 51000 pg/ml
[17] = pH 7.0 (7.4), S5, PSA 101600 pg/ml
[18] = pH 8.0 (7.9), S1, PSA 400 pg/ml
[19] = pH 8.0 (7.9), S2, PSA 1400 pg/ml
[20] = pH 8.0 (7.9), S3, PSA 7000 pg/ml
[21] = pH 8.0 (7.9), S4, PSA 51000 pg/ml
[22] = pH 8.0 (7.9), S5, PSA 101600 pg/ml
[23] = pH 9.0 (8.4), S1, PSA 400 pg/ml
[24] = pH 9.0 (8.4), S2, PSA 1400 pg/ml
[25] = pH 9.0 (8.4), S3, PSA 7000 pg/ml
[26] = pH 9.0 (8.4), S4, PSA 51000 pg/ml
[27] = pH 9.0 (8.4), S5, PSA 101600 pg/ml

O=C1O[C@H]([C@@H](O)CO)C(O)=C1O [Ascorbic Acid, Ascorbic acid]
RLU (myoglobin; S0, 11.4 ng/mL): 1,183 RLU
RLU (myoglobin; S1, 56.3 ng/mL): 5,557 RLU
S/S0 (myoglobin; S1, 56.3 ng/mL): 5
RLU (myoglobin; S2, 221 ng/mL): 31,947 RLU
S/S0 (myoglobin; S2, 221 ng/mL): 27
RLU (myoglobin; S3, 864 ng/mL): 190,076 RLU
S/S0 (myoglobin; S3, 864 ng/mL): 161
RLU (myoglobin; S4, 2016 ng/mL): 1,315,465 RLU
S/S0 (myoglobin; S4, 2016 ng/mL): 1,048
RLU (myoglobin; S5, 3136 ng/mL): 4,667,341 RLU
S/S0 (myoglobin; S5, 3136 ng/mL): 3,945
Mean RLU (PSA; Control (7.7), S0, PSA 0 pg/ml): 8,192 RLU
Mean RLU (PSA; [3]): 91,301 RLU
S/S0 (PSA; [3]): 11.1
Mean RLU (PSA; [4]): 403,035 RLU
S/S0 (PSA; [4]): 49.2
Mean RLU (PSA; [5]): 2,803,433 RLU
S/S0 (PSA; [5]): 342.2
Mean RLU (PSA; [6]): 10,490,375 RLU
S/S0 (PSA; [6]): 1280.6
Mean RLU (PSA; [7]): 10,598,780 RLU
S/S0 (PSA; [7]): 1293.8
Mean RLU (PSA; pH 6.0 (6.2), S0, PSA 0 pg/ml): 3,301 RLU
Mean RLU (PSA; [8]): 34,485 RLU
S/S0 (PSA; [8]): 10.4
Mean RLU (PSA; [9]): 114,219 RLU
S/S0 (PSA; [9]): 34.6
Mean RLU (PSA; [10]): 786,859 RLU
S/S0 (PSA; [10]): 238.3
Mean RLU (PSA; [11]): 3,198,045 RLU
S/S0 (PSA; [11]): 968.7
Mean RLU (PSA; [12]): 3,728,345 RLU
S/S0 (PSA; [12]): 1129.3
Mean RLU (PSA; pH 7.0 (7.4), S0, PSA 0 pg/ml): 7,704 RLU
Mean RLU (PSA; [13]): 87,221 RLU
S/S0 (PSA; [13]): 11.3
Mean RLU (PSA; [14]): 333,253 RLU
S/S0 (PSA; [14]): 43.3
Mean RLU (PSA; [15]): 2,640,633 RLU
S/S0 (PSA; [15]): 342.8
Mean RLU (PSA; [16]): 9,524,603 RLU
S/S0 (PSA; [16]): 1236.3
Mean RLU (PSA; [17]): 10,001,948 RLU
S/S0 (PSA; [17]): 1298.3
Mean RLU (PSA; pH 8.0 (7.9), S0, PSA 0 pg/ml): 9,345 RLU
Mean RLU (PSA; [18]): 96,427 RLU
S/S0 (PSA; [18]): 10.3
Mean RLU (PSA; [19]): 429,327 RLU
S/S0 (PSA; [19]): 45.9
Mean RLU (PSA; [20]): 3,433,037 RLU
S/S0 (PSA; [20]): 367.4
Mean RLU (PSA; [21]): 11,497,652 RLU
S/S0 (PSA; [21]): 1230.3
Mean RLU (PSA; [22]): 11,461,215 RLU
S/S0 (PSA; [22]): 1226.4
Mean RLU (PSA; pH 9.0 (8.4), S0, PSA 0 pg/ml): 5,821 RLU
Mean RLU (PSA; [23]): 73,801 RLU
S/S0 (PSA; [23]): 12.7
Mean RLU (PSA; [24]): 315,528 RLU
S/S0 (PSA; [24]): 54.2
Mean RLU (PSA; [25]): 2,592,673 RLU
S/S0 (PSA; [25]): 445.4
Mean RLU (PSA; [26]): 11,443,659 RLU
S/S0 (PSA; [26]): 1965.8
Mean RLU (PSA; [27]): 11,479,280 RLU
S/S0 (PSA; [27]): 1971.9
effect of ascorbic acid incubation time on observed chemiluminescence (biotin-HRP): does not appear to cause a significant effect
S/S0 (cTnI [1]): markedly improved S/S0
signal/background (cTnI [2]): improved analytical sensitivity by increasing signal/background
